# Assays:
# ND7 cells [1] = assay: X-gal histochemistry cell counts, undifferentiated ND7 cells; format: cell-based, rat/mouse
# Description: ND7 neurons were plated in 24 well culture dishes at a density of 4×10^4 cells/well and allowed to grow for 24 hrs. The undifferentiated ND7 neurons were then transfected with either pCMVb alone (A), pCMVb complexed with DC-Chol/DOPE (1/3, w/w) (B) or with pCMVb complexed with Mu1 and DC-Chol/DOPE (1/12/6) (C). Forty-eight hours later the cells were fixed and processed for histochemical detection of X-Gal.
# (§1) DNA and liposomes were combined by the addition of 400 μL serum-free differentiation media and gentle shaking. The DNA: liposome mixture was incubated at room temperature for 20 to 30 minutes before being applied to the cells. The DNA/liposome mixture was then applied to the cells and incubated at 37° C., 5% CO2 for 2 hours after which this media was replaced with complete media Twenty four to 48 hours later the cells were fixed and processed for X-gal histochemistry as described ^31 or harvested for β-galactosidase enzyme assays (Promega Corp.).
# Cell counts were performed under ×40 magnification using a Nikon Diaphot inverted microscope. Each transfection was repeated at least three times and at least three separate counts were made for each well.
# The β-galactosidase reporter gene assay provides a measure of the overall level of β-galactosidase produced, but gives no information regarding the number of cells transfected. For this reason, we also performed cell counts on transfected ND7 cells. Cells were seeded at a density of 4×10^4 in 24 well culture plates. After 24 hours the cells were washed briefly in serum-free media and transfected with pCMVβ complexed to DC-Chol/DOPE and Mu1 peptide. The ratios used were those found to be optimal in the reporter gene assay, 1:12:6, pCMVβ:Mu1:DC-Chol/DOPE. Using these ratios, we found a 6-fold increase in the number of β galactosidase positive cells (FIGS. 3 & 6).
# Swiss 3T3 cells = assay: β-galactosidase assay, Mu1 vs protamine in confluent Swiss 3T3 cells; format: cell-based; settings: liposome (B198:DOPE 3:2):peptide:DNA 12:0.6:1, final DNA concentration 5.0 μg/l, 1 or 2 h
# Description: Protamine is a naturally occurring cationic peptide abundant in piscine sperm and is potent in neutralising and condensing DNA. The transfection activity of protamine was compared with that of Mu1 peptide. Mu1 peptide or protamine sulfate (Sigma, grade X from Salmon) was complexed with DNA (pCMVβ) and then cationic liposomes (B 198:DOPE in a ratio of 3:2 m/m) giving a liposome:peptide:DNA ratio of 12:0.6:1 (w/w/w).
# The transfection activities were examined in Swiss 3T3 cells. The cells were seeded at an approximate density of 2×10^4 per well in a 24-well culture plate in DMEM supplemented with 10% FCS and grown for 48 h to complete confluence in the presence of 5% CO2 at 37° C. Cells were washed by brief exposure to DMEM and then treated with solutions containing LMD or LD complexes, prediluted with DMEM (final DNA concentration 5.0 μg/l in all cases), for 1 or 2 h. Cells were then washed again and incubated for a further 48 h in DMEM supplemented with 10% FCS prior to harvesting. The level of β-galactosidase enzyme activity was determined with a standard assay kit (Promega).
# ND7 cells [2] = assay: β-galactosidase reporter gene assay, transfection of undifferentiated ND7 cells; format: cell-based, rat/mouse
# Description: ND7 cells were seeded at a density of 5 ×10^4 cells/well in 24 well culture dishes 24 hrs prior to transfection. Immediately prior to transfection, cells were washed in serum-free media. Complexes were formed by incubating pCMVβ with Mu1 prior to the addition of the cationic liposome DC-Chol/DOPE. In each case 1 μg pCMVβ was complexed with 0.6, 6, 12, and 21 μg Mu1 peptide. Each of these combinations was then complexed with 3, 4 and 6 μg DC-Chol/DOPE. ND7 cells were exposed to transfection complexes for 2 hours then maintained at 37° C., 5% CO2 for another 24 hrs before being harvested and processed for β-galactosidase enzyme assay. Numbers represent means±SD, n=3.
# pCMVβ plasmid DNA was complexed to various amounts of polycationic peptide and then mixed with cationic liposome at a ratio of 1:3 (pCMVβ:liposome; w/w). After being washed briefly in serum free media, ND7 cells were exposed to the […] complexes for two hours and then returned to serum containing media Twenty-four hours later the cells were harvested and processed for β-galactosidase enzyme assay. Each condition was performed in triplicate and each experiment replicated three times. Numbers represent means±SD.
# ND7s are a well-characterized cell line derived from the fusion of a neuroblastoma N18Tg2) with neonatal rat sensory neurons ^28. The cell line was maintained in normal growth media (NGM) (Leibovitz's L-15 media (BRL) enriched with 10% Fetal bovine serum (BRL), 4 g/L glucose, 4 g/L sodium bicarbonate (BRL), 100 IU/mL penicillin/streptomycin (BRL)) at 37° C. and 5% CO2. The cells were plated onto 24 well plates (Costar) at a density that produced 70% confluence after 24 hours.
# Since initial experiments determined that the presence of fetal bovine serum inhibited transfection of ND7 cells serum-free differentiation media was used for all transfections. Various amounts of DNA and liposome were placed in the bottom of a 7 mL sterile Bijou container (Bibby Sterilin Ltd., Staffordshire, U.K.), but not in contact with each other.
# as §1
# Transfection complexes including the test peptides were generated in the following manner. Various amounts of peptide was placed in the bottom of sterile polystyrene containers alongside, but not in contact with 1 μg·pCMVβ and mixed by adding 400 μl serum free NGM media The complexes were incubated at room temperature for 10 minutes after which DC-Chol/DOPE was added. The pDNA/peptide/liposome complex was further incubated at room temperature for 20 minutes and then administered to cells as above.
# We examined the ability of Mu1 and Vp1 to enhance the transfection of a neuronal cell line by cationic liposomes using a β-Galactosidase reporter gene assay. ND7 cells were transfected with pCMVβ complexed to varying amounts of peptide and DC-Chol/DOPE. We have previously shown that the cationic liposome DC-Chol/DOPE is capable of efficiently transfecting the neuronally derived ND7 cell line ^31. […] Temporally, maximal levels of transgene expression are obtained between 48-60 hours post transfection. Therefore, in order to maximize the chance of detecting improvements in transfection we performed all our assays within 12-20 hours of transfection at a time when levels of reporter gene expression were lower. Previously we found a pDNA: liposome ratio of 1:3 (w/w) optimal for transfections in ND7 cells ^31. […]
substance,measurement,setting,value
H-MRRAHHRRRRASHRRMRGG-OH [Mu1],number of X-Gal positive cells (FIG. 3),"ND7 cells [1]; 1/12/6 vs pCMVβ with DC-Chol/DOPE 1/3, 48 h",significantly enhanced the number of X-Gal positive cells
same,increase in the number of β galactosidase positive cells,ND7 cells [1]; 1:12:6 pCMVβ:Mu1:DC-Chol/DOPE,6 fold
same,cell loss,"ND7 cells [1]; Mu1 complex, any of the concentrations utilized",No obvious cell loss
same,transfection compared with complexes comprising protamine,Swiss 3T3 cells,better transfection
same,"concentration in solution, optimal transfections","ND7 cells [2]; 12 μg Mu1/1 μg pCMVβ, 400 μL",30 ng/mL
same,relative ratios pCMVβ/Mu1/(DC-Chol/DOPE) giving greatest improvement in transfection efficiencies,"ND7 cells [2]; 0.6-21 μg Mu1, 3-6 μg liposome per 1 μg pCMVβ tested",1/12/6
same,increase in transfections compared to DNA alone,ND7 cells [2]; 1/12/6 pCMVβ/Mu1/(DC-Chol/DOPE) w/w/w,11 fold
same,concentration of protein in the cellular lysates vs untransfected cells,ND7 cells [2]; Mu1 complex (data not shown),did not significantly vary
same,improvement in transfection efficiencies over naked DNA,"ND7 cells [2]; pCMVβ complexed to Mu1 alone, no liposome",No improvement in transfection efficiencies over naked DNA
same,effect on transfection efficiencies,"ND7 cells [2]; pDNA:Mu1 1:0.5 (w/w) with liposomes, initial experiments (not shown)",did not affect transfection efficiencies
same,improvement of cationic liposome mediated transfection efficiencies,"ND7 cells [2]; β-galactosidase activity, Mu1 with DC-Chol/DOPE vs liposome without Mu1",over 4 fold

# — patent publication US20030153081A1, “Viral core protein-cationic lipid-nucleic acid-delivery complexes” (priority 1999, published 2003)
